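Grown in 96-well plates, cells were treated for 48 hours with each compound at five concentrations. Insufficient inhibition: endpoint recorded as highest concentration tested. GI50 is the concentration that inhibits growth by half. The concentration for full growth arrest is given as TGI.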

This is an account of results in PubChem BioAssay (NCI).

Test systems include HL-60(TB) leukemia; MDA-MB-435; SNB-19 CNS; EKVX NSCLC; UACC-257 melanoma; HT29 colon; HCC-2998 colon; IGROV1 ovarian; ACHN renal; U251 CNS.
Holding throughout (assay): growth of human tumour cells (NCI), 48 h

On to `Cc1ccc(C2=NOC3=c4ccccc4=CSC3=C2c2ccc([N+](=O)[O-])cc2)cc1`, for which the GI50 with HL-60(TB) leukemia was more than 100 µM; with MDA-MB-435, 57.9 µM; in the assay on SNB-19 CNS, 17.6 µM; in the assay with EKVX NSCLC it was 24.4 µM; in the assay with UACC-257 melanoma it was 44.4 µM; in the assay on HT29 colon it was more than 100 µM. Also, the GI50 is 24.4 µM in the assay with HCC-2998 colon, 14.2 µM in the assay on IGROV1 ovarian, 13.8 µM in the assay on ACHN renal and 10.3 µM in the assay on U251 CNS. For the same molecule, the TGI with HL-60(TB) leukemia was more than 100 µM; with MDA-MB-435 it was more than 100 µM; in the assay with SNB-19 CNS, 63.7 µM; in the assay on EKVX NSCLC, 93.6 µM; in the assay on UACC-257 melanoma it was more than 100 µM; in the assay on HT29 colon, more than 100 µM. The TGI in the assay with HCC-2998 colon was more than 100 µM; in the assay with IGROV1 ovarian, more than 100 µM; in the assay with ACHN renal, 61.4 µM; with U251 CNS, 36.1 µM.

In the case of `O=C1C=C(Br)c2c(-c3ccccc3)oc3cccc1c23`, the TGI in the assay with HL-60(TB) leukemia is more than 63.2 µM; in the assay on MDA-MB-435, more than 100 µM; in the assay on SNB-19 CNS, more than 100 µM; in the assay with EKVX NSCLC, more than 100 µM; in the assay on UACC-257 melanoma it was more than 100 µM; in the assay on HT29 colon, more than 100 µM. The TGI in the assay with HCC-2998 colon, with IGROV1 ovarian, in the assay on ACHN renal and in the assay on U251 CNS was more than 100 µM throughout.

`C[C@]12CC[C@H]3[C@@H](CCC4=CC(=O)CC[C@@H]43)[C@@H]1CC[C@@H]2OC(=O)CCc1ccccc1`: the GI50 in the assay on HL-60(TB) leukemia is 2.41 µM; in the assay with MDA-MB-435, 24.5 µM; with SNB-19 CNS, 18.4 µM; with EKVX NSCLC it was 2.23 µM; with UACC-257 melanoma, 24.6 µM; with HT29 colon, 18.2 µM. In addition, the GI50 was 29.7 µM with HCC-2998 colon, 20.5 µM in the assay on IGROV1 ovarian, 18.9 µM with ACHN renal and 15.1 µM in the assay on U251 CNS. In addition, the TGI is 35.5 µM in the assay with HL-60(TB) leukemia; more than 80.2 µM in the assay with MDA-MB-435; 37.5 µM in the assay with SNB-19 CNS; 28.7 µM with EKVX NSCLC; 59.5 µM in the assay on UACC-257 melanoma; 56.5 µM with HT29 colon. The TGI in the assay with HCC-2998 colon is more than 78.2 µM; with IGROV1 ovarian it was 42 µM; in the assay on ACHN renal it was 45.1 µM; in the assay on U251 CNS it was 28.4 µM.

Regarding `O[C@H]1CO[C@H]2[C@@H]1OC[C@@H]2Oc1ccc(Nc2ccnc(Nc3ccc(O[C@H]4CO[C@H]5[C@@H]4OC[C@@H]5O)c(Cl)c3)n2)cc1Cl`, the GI50 in the assay with HL-60(TB) leukemia is 1.57 µM; in the assay on MDA-MB-435, 2.31 µM; with SNB-19 CNS, 2.75 µM; with EKVX NSCLC, 2.4 µM; with UACC-257 melanoma, 2.7 µM; in the assay with HT29 colon it was 2.48 µM. The GI50 is 2.27 µM with HCC-2998 colon, 0.757 µM in the assay with IGROV1 ovarian, 2.8 µM in the assay on ACHN renal and 1.62 µM in the assay with U251 CNS. The TGI with HL-60(TB) leukemia came to 4.7 µM; in the assay with MDA-MB-435, 10 µM; in the assay on SNB-19 CNS it was 7.98 µM; in the assay with EKVX NSCLC, 8.86 µM; in the assay with UACC-257 melanoma it was 10.2 µM; in the assay with HT29 colon, 15.4 µM. Further, the TGI was 6.55 µM with HCC-2998 colon, 6.08 µM in the assay on IGROV1 ovarian, 10.6 µM in the assay on ACHN renal and 4.02 µM with U251 CNS.

Take `CN(C)c1ccc(/C=C\c2cccc[n+]2C)cc1`: the GI50 was 3.09 µM in the assay on HL-60(TB) leukemia; 4.16 µM with MDA-MB-435; 4.83 µM in the assay on SNB-19 CNS; 0.489 µM with EKVX NSCLC; 7.81 µM with UACC-257 melanoma; 5.01 µM in the assay on HT29 colon. Also, the GI50 with HCC-2998 colon was 3.68 µM; in the assay with IGROV1 ovarian, 8.66 µM; in the assay on ACHN renal, 43 µM; with U251 CNS it was 4.89 µM. Further, the TGI in the assay on HL-60(TB) leukemia, in the assay with MDA-MB-435, in the assay on SNB-19 CNS, in the assay with EKVX NSCLC, with UACC-257 melanoma and in the assay on HT29 colon was more than 100 µM in each case. In addition, the TGI with HCC-2998 colon is 39.2 µM; in the assay with IGROV1 ovarian, more than 100 µM; in the assay with ACHN renal, more than 100 µM; in the assay on U251 CNS, more than 100 µM.

Take `COc1cccc(C=Nc2cc(C)ccn2)c1O.COc1cccc(C=Nc2cc(C)ccn2)c1O.[Cu]`: the GI50 is 1.75 µM with HL-60(TB) leukemia; 13.6 µM in the assay on MDA-MB-435; 19.7 µM in the assay on SNB-19 CNS; 25.4 µM with EKVX NSCLC; 19.1 µM in the assay with UACC-257 melanoma; 23.1 µM in the assay with HT29 colon. The GI50 is 16.2 µM in the assay with HCC-2998 colon, 21.4 µM in the assay on IGROV1 ovarian, 22.3 µM in the assay with ACHN renal and 15.7 µM in the assay on U251 CNS. Further, the TGI with HL-60(TB) leukemia turned out to be 14.2 µM; with MDA-MB-435 it was 45.9 µM; in the assay on SNB-19 CNS, 60.5 µM; in the assay on EKVX NSCLC, 71.5 µM; in the assay with UACC-257 melanoma, 43.1 µM; in the assay with HT29 colon, 52.4 µM. Moreover, the TGI in the assay with HCC-2998 colon was 37.9 µM; in the assay on IGROV1 ovarian, 48.8 µM; in the assay with ACHN renal it was 43.8 µM; with U251 CNS, 51.1 µM.

In the case of `O=C(O)C/C=C/CC(=O)O`, the TGI with HL-60(TB) leukemia, with MDA-MB-435, in the assay with SNB-19 CNS, with EKVX NSCLC, in the assay with UACC-257 melanoma and in the assay with HT29 colon was more than 100 µM each time. In addition, the TGI in the assay on HCC-2998 colon, with IGROV1 ovarian, in the assay with ACHN renal and in the assay on U251 CNS was more than 100 µM throughout.

Take `O=C1C(=O)c2c(nc3ccc(Cl)cn23)-c2ccccc21`: the GI50 in the assay on HL-60(TB) leukemia is 0.235 µM; with MDA-MB-435, 0.183 µM; with SNB-19 CNS, 1.32 µM; with EKVX NSCLC it was 1.65 µM; in the assay on UACC-257 melanoma, 0.284 µM; in the assay on HT29 colon, 3.26 µM. For the same molecule, the GI50 was 2.06 µM with HCC-2998 colon, 0.646 µM in the assay on IGROV1 ovarian, 0.591 µM in the assay on ACHN renal and 0.274 µM in the assay with U251 CNS. Besides, the TGI in the assay with MDA-MB-435 is 0.35 µM; with SNB-19 CNS it was 3 µM; in the assay on EKVX NSCLC, 3.38 µM; in the assay with UACC-257 melanoma, 0.803 µM; in the assay on HT29 colon it was 19.8 µM; in the assay on HCC-2998 colon, 3.96 µM. The results for the TGI in the assay with ACHN renal and with U251 CNS were 1.88 µM and 0.721 µM, respectively.
